Assay results taken from patent US9102752B2, “Peptide vaccine for prevention and immunotherapy of dementia of the Alzheimer's type” (United Biomedical, Inc., priority 2013, dated 2015).

How the values were obtained:
[1] = test system: anti-Aβ antibodies in macaque antisera; assay: Specificity analysis (10-mer peptide ELISA) of antisera from Cynomolgus macaques; assay type: binding
[2] = test system: anti-Aβ antibodies in sera of vaccinated patients; assay: Epitope mapping, competitive binding inhibition EIA with patient sera (10-mer peptides, IC50); design: species or system human; Epitope mapping, fine specificity analysis, serum of subject P210: unit not given here; settings: for Epitope mapping, fine specificity analysis, serum of subject P101: serum 16 wpi of vaccinated patient P101; for Epitope mapping, fine specificity analysis, serum of subject P102: serum 16 wpi of vaccinated patient P102; for Epitope mapping, fine specificity analysis, serum of subject P103: serum 16 wpi of vaccinated patient P103; for Epitope mapping, fine specificity analysis, serum of subject P104: serum 16 wpi of vaccinated patient P104; for Epitope mapping, fine specificity analysis, serum of subject P105: serum 16 wpi of vaccinated patient P105; for Epitope mapping, fine specificity analysis, serum of subject P106: serum 16 wpi of vaccinated patient P106; for Epitope mapping, fine specificity analysis, serum of subject P107: serum 16 wpi of vaccinated patient P107; for Epitope mapping, fine specificity analysis, serum of subject P108: serum 16 wpi of vaccinated patient P108; for Epitope mapping, fine specificity analysis, serum of subject P109: serum 16 wpi of vaccinated patient P109; for Epitope mapping, fine specificity analysis, serum of subject P201: serum 16 wpi of vaccinated patient P201; for Epitope mapping, fine specificity analysis, serum of subject P202: serum 16 wpi of vaccinated patient P202; for Epitope mapping, fine specificity analysis, serum of subject P203: serum 16 wpi of vaccinated patient P203; for Epitope mapping, fine specificity analysis, serum of subject P204: serum 16 wpi of vaccinated patient P204; for Epitope mapping, fine specificity analysis, serum of subject P205: serum 16 wpi of vaccinated patient P205; for Epitope mapping, fine specificity analysis, serum of subject P206: serum 16 wpi of vaccinated patient P206; for Epitope mapping, fine specificity analysis, serum of subject P207: serum 16 wpi of vaccinated patient P207; for Epitope mapping, fine specificity analysis, serum of subject P208: serum 16 wpi of vaccinated patient P208; for Epitope mapping, fine specificity analysis, serum of subject P209: serum 16 wpi of vaccinated patient P209; for Epitope mapping, fine specificity analysis, serum of subject P210: serum 16 wpi of vaccinated patient P210
[3] = antisera of macaques given UBI AD Vaccine 150 μg/dose, 9 WPI
[4] = antisera of macaques given UBI AD Vaccine 150 μg/dose, 15 WPI
[5] = antisera of macaques given UBI AD Vaccine 750 μg/dose, 9 WPI
[6] = antisera of macaques given UBI AD Vaccine 750 μg/dose, 15 WPI

21 (HDSGYEVHHQ; PEPTIDE (1)..(10) Abeta 6-15 or APP 770(H677-Q686); listed as Homo sapiens) [compound 21]
0.494: Reactivity of antisera with peptide (specificity analysis ELISA) [1, 4]
0.266: Reactivity of antisera with peptide (specificity analysis ELISA) [1, 3]
0.419: Reactivity of antisera with peptide (specificity analysis ELISA) [1, 5]
0: Epitope mapping, fine specificity analysis, serum of subject P101 [2] | Epitope mapping, fine specificity analysis, serum of subject P102 [2] | Epitope mapping, fine specificity analysis, serum of subject P103 [2] | Epitope mapping, fine specificity analysis, serum of subject P104 [2] | Epitope mapping, fine specificity analysis, serum of subject P105 [2] | Epitope mapping, fine specificity analysis, serum of subject P106 [2] | Epitope mapping, fine specificity analysis, serum of subject P107 [2] | Epitope mapping, fine specificity analysis, serum of subject P108 [2] | Epitope mapping, fine specificity analysis, serum of subject P109 [2] | Epitope mapping, fine specificity analysis, serum of subject P201 [2] | Epitope mapping, fine specificity analysis, serum of subject P202 [2] | Epitope mapping, fine specificity analysis, serum of subject P203 [2] | Epitope mapping, fine specificity analysis, serum of subject P204 [2] | Epitope mapping, fine specificity analysis, serum of subject P205 [2] | Epitope mapping, fine specificity analysis, serum of subject P206 [2] | Epitope mapping, fine specificity analysis, serum of subject P207 [2] | Epitope mapping, fine specificity analysis, serum of subject P208 [2] | Epitope mapping, fine specificity analysis, serum of subject P209 [2] | Epitope mapping, fine specificity analysis, serum of subject P210 [2]
0.332: Reactivity of antisera with peptide (specificity analysis ELISA) [1, 6]

22 (DSGYEVHHQK; PEPTIDE (1)..(10) Abeta 7-16 or APP 770(D678-K687); listed as Homo sapiens) [compound 22]
0.405: Reactivity of antisera with peptide (specificity analysis ELISA) [1, 5]
0: Epitope mapping, fine specificity analysis, serum of subject P102 [2] | Epitope mapping, fine specificity analysis, serum of subject P103 [2] | Epitope mapping, fine specificity analysis, serum of subject P104 [2] | Epitope mapping, fine specificity analysis, serum of subject P105 [2] | Epitope mapping, fine specificity analysis, serum of subject P106 [2] | Epitope mapping, fine specificity analysis, serum of subject P107 [2] | Epitope mapping, fine specificity analysis, serum of subject P108 [2] | Epitope mapping, fine specificity analysis, serum of subject P109 [2] | Epitope mapping, fine specificity analysis, serum of subject P201 [2] | Epitope mapping, fine specificity analysis, serum of subject P202 [2] | Epitope mapping, fine specificity analysis, serum of subject P203 [2] | Epitope mapping, fine specificity analysis, serum of subject P204 [2] | Epitope mapping, fine specificity analysis, serum of subject P205 [2] | Epitope mapping, fine specificity analysis, serum of subject P206 [2] | Epitope mapping, fine specificity analysis, serum of subject P207 [2] | Epitope mapping, fine specificity analysis, serum of subject P208 [2] | Epitope mapping, fine specificity analysis, serum of subject P209 [2] | Epitope mapping, fine specificity analysis, serum of subject P210 [2]
0.289: Reactivity of antisera with peptide (specificity analysis ELISA) [1, 4]
214: Epitope mapping, fine specificity analysis, serum of subject P101 [2]
0.197: Reactivity of antisera with peptide (specificity analysis ELISA) [1, 6]
0.270: Reactivity of antisera with peptide (specificity analysis ELISA) [1, 3]

23 (SGYEVHHQKL; PEPTIDE (1)..(10) Abeta 8-17 or APP 770(S679-L688); listed as Homo sapiens) [compound 23]
0: Epitope mapping, fine specificity analysis, serum of subject P101 [2] | Epitope mapping, fine specificity analysis, serum of subject P102 [2] | Epitope mapping, fine specificity analysis, serum of subject P103 [2] | Epitope mapping, fine specificity analysis, serum of subject P104 [2] | Epitope mapping, fine specificity analysis, serum of subject P105 [2] | Epitope mapping, fine specificity analysis, serum of subject P106 [2] | Epitope mapping, fine specificity analysis, serum of subject P107 [2] | Epitope mapping, fine specificity analysis, serum of subject P108 [2] | Epitope mapping, fine specificity analysis, serum of subject P109 [2] | Epitope mapping, fine specificity analysis, serum of subject P201 [2] | Epitope mapping, fine specificity analysis, serum of subject P202 [2] | Epitope mapping, fine specificity analysis, serum of subject P203 [2] | Epitope mapping, fine specificity analysis, serum of subject P204 [2] | Epitope mapping, fine specificity analysis, serum of subject P205 [2] | Epitope mapping, fine specificity analysis, serum of subject P206 [2] | Epitope mapping, fine specificity analysis, serum of subject P207 [2] | Epitope mapping, fine specificity analysis, serum of subject P208 [2] | Epitope mapping, fine specificity analysis, serum of subject P209 [2] | Epitope mapping, fine specificity analysis, serum of subject P210 [2]
0.071: Reactivity of antisera with peptide (specificity analysis ELISA) [1, 4]
0.077: Reactivity of antisera with peptide (specificity analysis ELISA) [1, 5]
0.082: Reactivity of antisera with peptide (specificity analysis ELISA) [1, 6]
0.097: Reactivity of antisera with peptide (specificity analysis ELISA) [1, 3]

24 (GYEVHHQKLV; PEPTIDE (1)..(10) Abeta 9-18 or APP 770(G680-V689); listed as Homo sapiens) [compound 24]
16: Epitope mapping, fine specificity analysis, serum of subject P207 [2]
0.055: Reactivity of antisera with peptide (specificity analysis ELISA) [1, 3]
0: Epitope mapping, fine specificity analysis, serum of subject P101 [2] | Epitope mapping, fine specificity analysis, serum of subject P102 [2] | Epitope mapping, fine specificity analysis, serum of subject P103 [2] | Epitope mapping, fine specificity analysis, serum of subject P104 [2] | Epitope mapping, fine specificity analysis, serum of subject P105 [2] | Epitope mapping, fine specificity analysis, serum of subject P106 [2] | Epitope mapping, fine specificity analysis, serum of subject P107 [2] | Epitope mapping, fine specificity analysis, serum of subject P108 [2] | Epitope mapping, fine specificity analysis, serum of subject P109 [2] | Epitope mapping, fine specificity analysis, serum of subject P201 [2] | Epitope mapping, fine specificity analysis, serum of subject P202 [2] | Epitope mapping, fine specificity analysis, serum of subject P203 [2] | Epitope mapping, fine specificity analysis, serum of subject P204 [2] | Epitope mapping, fine specificity analysis, serum of subject P205 [2] | Epitope mapping, fine specificity analysis, serum of subject P206 [2] | Epitope mapping, fine specificity analysis, serum of subject P208 [2] | Epitope mapping, fine specificity analysis, serum of subject P209 [2] | Epitope mapping, fine specificity analysis, serum of subject P210 [2]
0.059: Reactivity of antisera with peptide (specificity analysis ELISA) [1, 6]
0.052: Reactivity of antisera with peptide (specificity analysis ELISA) [1, 5]
0.067: Reactivity of antisera with peptide (specificity analysis ELISA) [1, 4]
